Assay results taken from paper PMC8784342, “Investigation of sugar binding kinetics of the E. coli sugar/H^+ symporter XylE using solid-supported membrane-based electrophysiology” (The Journal of Biological Chemistry, 2021).
“And” between values parts separate entries of the source, which are not always exact repeats. Equal values may be shown once. Marks after values point to notes of the source that are not given here.

Experiments:
[1] = molecular target: T1, D27N XylE (Escherichia coli, UniProt P0AGF4, D27N); conditions: cited from earlier work
T1 construct: made in house; host or cells: E. coli BL21 DE3

[2] = molecular target: T2, Q175I/L297F XylE (Escherichia coli, UniProt P0AGF4, L297F/Q175I); test: biochemical
T2 construct: made in house; host or cells: E. coli BL21 DE3
Protocol: (§1) Reconstitution of purified proteins (2–20 mg/ml) was carried out with E. coli phospholipids (Avanti Polar Lipids, E. coli polar lipid extract). Preformed liposomes (0.2–2 ml, 10 mg/ml) were dissolved in 1% (w/v) n-octyl-β-D-glucoside, and the protein suspension was mixed on ice to a concentration of 0.2 mg protein/mg lipid (LPR 5).
Wt XylE, wt FucP, and the mutant proteins were reconstituted using overnight incubation in 400 mg/ml BioBeads (SM-2 Adsorbent Media, Bio-Rad) at 4 °C. After reconstitution, the samples were diluted to 2.5 mg/ml lipid concentration, frozen in liquid nitrogen, and stored at −80 °C. […] We, therefore, applied the previously established n-octyl-β-D-glucoside dilution method (1:100) ([69]).
(§2) SSM measurements were performed as described ([20], [23]). After thawing the sample and sonication in a water bath, 30 μl of proteoliposomes (2.5 mg/ml lipid at LPR 5) was allowed to adsorb for 1 to 2 h to an octadecanethiol/phosphatidylcholine hybrid bilayer on a gold surface (the sensor).
(§3) For measurements, a single solution exchange configuration ([23]) was employed that consisted in three phases of 0.5 s duration each: Flow of nonactivating solution (NA), activating solution (A), and nonactivating solution (NA). Only the activating solution contained the sugar. When pH dependence is determined, pH of NA and A solutions during one experiment are kept constant. Between experiments using different pH values, the sensor was incubated at the new pH for 3 min to equilibrate the intraliposomal pH.
(§4) Instruments with different time resolution were used as required. […] Currents were recorded throughout the entire time and amplified with a current amplifier set to a gain of […] and a rise time of 10 ms (low time-resolution set up) or 3 ms (high time-resolution set up).
(§5) All NA solutions were buffered in 100 mM KPi at a given pH value. NA solutions used with LacY contained 1 mM DTT in addition. A solutions were made from NA solutions by adding the respective sugar at a given concentration to induce the symport reaction. Sugar concentration jumps initiated sugar-proton symport, and charge transfer was measured by capacitive coupling. Therefore, only transient currents were recorded.
(§6) Each dataset represented with error bars was generated by performing the same experiment on multiple sensors (n ≥ 3). Error bars represent standard deviations of the average value. When peak currents are averaged across sensors, datasets are normalized before averaging. When the protein catalyzes transport and PSS currents are negligible, the peak current of the transient represents a good approximation of the current generated by the steady-state symport activity of the transporter. In most cases, peak currents have been used to derive kinetic and thermodynamic parameters according to the equations given in Figure 2 (KM, Imax ∼ Vmax, Hill coefficient n), Figure 4 (KD and rate constants for sugar binding kon and release koff), and Figure 6 (pKa for proton binding and pKb for proton release). Reconstruction of transporter currents for analysis of biphasic currents has been performed as described previously ([70]). This is required when transport and PSS currents are observed at the same time.

[3] = molecular target: T1, D27N XylE; test: SSM-based electrophysiology, transport-deficient mutant D27N XylE (PSS currents, electrogenic binding); assay type: biochemical
Protocol: as §1
(§7) Wt XylE, wt FucP, and the mutant proteins were reconstituted using overnight incubation in 400 mg/ml BioBeads (SM-2 Adsorbent Media, Bio-Rad) at 4 °C. After reconstitution, the samples were diluted to 2.5 mg/ml lipid concentration, frozen in liquid nitrogen, and stored at −80 °C. For wt LacY and mutant proteins, this procedure was not successful. We, therefore, applied the previously established n-octyl-β-D-glucoside dilution method (1:100) ([69]).
as §2, §3, §4, §5, §6

[4] = molecular target: T3, wt XylE (Escherichia coli, UniProt P0AGF4); design: made in house; host or cells: E. coli BL21 DE3; conditions: relative to D-xylose in wt XylE (100%); cited from earlier work
[5] = test system: XylE; conditions: radioactively labeled sugars; read-out: KM, literature; cited from earlier work
[6] = molecular target: XylE; design: method as in PMID 23075985; conditions: read-out: KD, isothermal titration calorimetry; cited from earlier work
[7] = molecular target: T3, wt XylE; test: biochemical; design: made in house; host or cells: E. coli BL21 DE3
Protocol: as §1, §7, §2, §3, §4, §5, §6

[8] = molecular target: T1, D27N XylE; conditions: relative to D-xylose in wt XylE (100%); cited from earlier work
[9] = molecular target: T3, wt XylE; conditions: cited from earlier work
[10] = molecular target: T4, wt FucP (Escherichia coli, UniProt P11551); test: SSM-based electrophysiology, proteoliposomes with wt FucP; assay type: biochemical
T4 construct: made in house; host or cells: E. coli BL21 DE3
T4 sequence (P11551 1-438): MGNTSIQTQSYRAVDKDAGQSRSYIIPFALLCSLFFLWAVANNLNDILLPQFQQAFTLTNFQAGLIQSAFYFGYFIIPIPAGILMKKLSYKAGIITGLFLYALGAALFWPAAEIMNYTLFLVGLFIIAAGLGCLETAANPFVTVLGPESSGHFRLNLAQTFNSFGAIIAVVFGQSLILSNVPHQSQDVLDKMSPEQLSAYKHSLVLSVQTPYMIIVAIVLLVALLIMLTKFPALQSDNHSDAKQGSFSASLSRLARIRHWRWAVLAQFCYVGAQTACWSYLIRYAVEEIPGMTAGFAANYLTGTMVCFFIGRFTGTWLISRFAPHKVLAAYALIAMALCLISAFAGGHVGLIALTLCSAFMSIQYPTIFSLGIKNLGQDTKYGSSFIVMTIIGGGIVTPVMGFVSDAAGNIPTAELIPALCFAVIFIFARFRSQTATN
Protocol: as §1, §7, §2, §3, §4, §5, §6

[11] = test system: FucP; design: method as in PMID 2829831, PMID 8384447; conditions: radioactively labeled sugars; read-out: KM, literature; cited from earlier work
[12] = molecular target: T5, D46N FucP (Escherichia coli, UniProt P11551, D46N); test: SSM-based electrophysiology, transport-deficient mutant D46N FucP (PSS currents); assay type: biochemical
T5 construct: made in house; host or cells: E. coli BL21 DE3
Protocol: as §1, §7, §2, §3, §4, §5, §6

[13] = molecular target: T4, wt FucP; conditions: pH 7.6, main substrate, cited from earlier work

T5 sequence (P11551 whole entry D46N): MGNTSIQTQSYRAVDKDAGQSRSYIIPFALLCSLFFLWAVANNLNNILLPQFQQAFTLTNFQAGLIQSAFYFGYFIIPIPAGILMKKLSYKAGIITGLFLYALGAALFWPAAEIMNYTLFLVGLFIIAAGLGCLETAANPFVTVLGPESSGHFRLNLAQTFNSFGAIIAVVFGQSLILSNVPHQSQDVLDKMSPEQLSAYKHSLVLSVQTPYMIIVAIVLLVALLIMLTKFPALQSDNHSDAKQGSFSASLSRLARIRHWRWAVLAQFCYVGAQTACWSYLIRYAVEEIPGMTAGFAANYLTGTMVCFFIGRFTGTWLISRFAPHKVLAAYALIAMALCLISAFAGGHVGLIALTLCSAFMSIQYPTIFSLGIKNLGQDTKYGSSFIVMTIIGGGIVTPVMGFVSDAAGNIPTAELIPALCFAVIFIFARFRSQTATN
T3 sequence (P0AGF4 whole entry): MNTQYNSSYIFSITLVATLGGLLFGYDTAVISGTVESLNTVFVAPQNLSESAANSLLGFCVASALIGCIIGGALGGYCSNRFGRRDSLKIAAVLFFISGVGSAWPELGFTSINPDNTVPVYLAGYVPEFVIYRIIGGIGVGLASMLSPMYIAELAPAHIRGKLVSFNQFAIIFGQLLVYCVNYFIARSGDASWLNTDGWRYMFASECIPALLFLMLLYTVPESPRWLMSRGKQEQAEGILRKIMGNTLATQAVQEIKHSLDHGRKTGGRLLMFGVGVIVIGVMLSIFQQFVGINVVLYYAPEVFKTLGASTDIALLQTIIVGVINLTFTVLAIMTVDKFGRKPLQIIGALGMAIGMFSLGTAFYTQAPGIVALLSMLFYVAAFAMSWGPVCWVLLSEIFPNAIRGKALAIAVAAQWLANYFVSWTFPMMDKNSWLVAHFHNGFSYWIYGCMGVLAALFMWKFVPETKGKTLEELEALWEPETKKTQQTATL
T1 sequence (P0AGF4 whole entry D27N): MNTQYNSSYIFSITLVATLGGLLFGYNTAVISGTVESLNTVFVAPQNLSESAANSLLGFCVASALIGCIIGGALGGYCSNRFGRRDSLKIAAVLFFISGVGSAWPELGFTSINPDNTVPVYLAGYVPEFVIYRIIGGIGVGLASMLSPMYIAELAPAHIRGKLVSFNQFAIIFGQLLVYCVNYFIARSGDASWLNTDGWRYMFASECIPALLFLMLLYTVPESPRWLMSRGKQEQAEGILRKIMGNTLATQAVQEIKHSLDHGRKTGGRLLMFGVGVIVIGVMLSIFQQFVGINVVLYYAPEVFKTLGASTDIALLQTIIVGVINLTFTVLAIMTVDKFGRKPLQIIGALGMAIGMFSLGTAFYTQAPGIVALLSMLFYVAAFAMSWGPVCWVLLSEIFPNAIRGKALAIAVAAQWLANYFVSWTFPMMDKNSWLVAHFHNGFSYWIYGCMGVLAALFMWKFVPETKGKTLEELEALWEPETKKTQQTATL
T2 sequence (P0AGF4 whole entry Q175I/L297F): as the sequence (P0AGF4 whole entry D27N) above, with N27D, Q175I, L297F counted along it

In the case of `OC1OC[C@@H](O)[C@H](O)[C@H]1O` (stereo partly drawn) [D-xylose], the “activity in uptake assay” value [1] is given as < 1%, the EC50 ([2]; EC50 (mM) (KM for transport, slow component), pH 7.6) is given as ~1.5 mM and the “Imax slow component normalized to D-xylose transport in wt XylE (100%)” value ([2]; pH 7.6) is given as 22%. For the same compound, the “Imax (nA) slow component” value ([2]; pH 7.6, reconstructed transporter current) was 0.4 ± 0.1 nA, the “IPeak (pA) fast component” value ([2]; pH 7.6, saturating substrate) was 520 ± 90 pA and the pKa ([2]; reconstructed transporter currents, acidic range) was 4.8 ± 0.1. The Kd ([3]; KD (mM) mut, pH 7.6, hyperbolic fit of peak currents, in Table 3 headed EC50) was 1 ± 0.1 mM, the Kd ([3]; KD from fit of concentration-dependent kobs, pH 7.6) was 5.5 ± 2.1 mM and the “Imax (nA) slow component” value ([3]; pH 7.6) was <0.05 nA. The “Q (pC) Mut, transferred charge” value ([3]; pH 7.6, 30 mM substrate) was 6.8 ± 1.5 (pH 7.6) pC, the “IPeak (pA) fast component” value ([3]; pH 7.6, saturating substrate) was 500 pA and 500 ± 100 pA and the “kobs (s^−1) mut” value ([3]; saturating substrate (30 mM), kobs = 1/τ, monoexponential fit, limited by time resolution) was 300 ± 30 s⁻¹. The Radioactive counterflow activity [4] was 100% ^a, the Km [5] was 100 to 500 µM and the Kd [6] was 400 µM. The “PSS current higher than that for D-glucose” value ([7]; independent of pH) was 165 pA, the “Q (pC) wt, PSS transferred charge” value ([7]; pH 3.2, 30 mM substrate) was 4.0 ± 1.4 (pH 3.2) pC and the “Imax in percent of Imax of the main substrate (D-xylose)” value ([7]; pH 7.6) was 100%. The “IPeak (pA) fast component” value ([7]; pH 7.6, saturating substrate, transport current given as upper limit) was <1800 pA, the Radioactive counterflow activity [8] was 90% and the Imax ([9]; pH 7.6, main substrate) was 1.8 ± 0.5 nA. The pKa ([9]; pH-dependent peak currents, acidic range) was 4.6 ± 0.2, the pKb1 ([9]; pH-dependent peak currents, alkaline range, double titration) was ~7.5 and the Km ([9]; read-out: KM (mM) Michaelis–Menten equation, pH 7.6, main substrate, in Table 3 headed EC50) was ~1.5 mM.

In the case of L-fucose, the “KM lower than KM obtained for minor substrates” value ([10]; pH 7.6) is given as 7–12 fold, the “Q (pC) wt, PSS transferred charge” value ([10]; pH 10.5, 30 mM substrate, rough estimation) is given as “∼0.5 ^b (pH 10.5) pC” and the Km [11] is given as 20 to 40 µM. For the same compound, the “induction of PSS currents” value [12] was “induces PSS currents”, the “kobs (s^−1) mut” value ([12]; 30 mM substrate, low time-resolution set up) was 100 ± 20 ^a s^−1 and the “Q (pC) Mut, transferred charge” value ([12]; pH 10.5, 30 mM substrate) was −1.2 ± 0.6 (pH 10.5) pC. The Imax [13] was 0.5 ± 0.2 nA and the Km ([13]; read-out: KM (mM) Michaelis–Menten equation) was 0.9 ± 0.1 mM.
